Results taken from patent US7375226B2, “Bi- and tricyclic substituted phenyl methanones” (Hoffman-La Roche Inc., priority 2004, dated 2008).

Biological target: T1, mGlyT-1b (Mus musculus, UniProt P28571)
T1 construct: host or cells: Flp-in-CHO
T1 sequence (P28571 1-651 isoform P28571-2): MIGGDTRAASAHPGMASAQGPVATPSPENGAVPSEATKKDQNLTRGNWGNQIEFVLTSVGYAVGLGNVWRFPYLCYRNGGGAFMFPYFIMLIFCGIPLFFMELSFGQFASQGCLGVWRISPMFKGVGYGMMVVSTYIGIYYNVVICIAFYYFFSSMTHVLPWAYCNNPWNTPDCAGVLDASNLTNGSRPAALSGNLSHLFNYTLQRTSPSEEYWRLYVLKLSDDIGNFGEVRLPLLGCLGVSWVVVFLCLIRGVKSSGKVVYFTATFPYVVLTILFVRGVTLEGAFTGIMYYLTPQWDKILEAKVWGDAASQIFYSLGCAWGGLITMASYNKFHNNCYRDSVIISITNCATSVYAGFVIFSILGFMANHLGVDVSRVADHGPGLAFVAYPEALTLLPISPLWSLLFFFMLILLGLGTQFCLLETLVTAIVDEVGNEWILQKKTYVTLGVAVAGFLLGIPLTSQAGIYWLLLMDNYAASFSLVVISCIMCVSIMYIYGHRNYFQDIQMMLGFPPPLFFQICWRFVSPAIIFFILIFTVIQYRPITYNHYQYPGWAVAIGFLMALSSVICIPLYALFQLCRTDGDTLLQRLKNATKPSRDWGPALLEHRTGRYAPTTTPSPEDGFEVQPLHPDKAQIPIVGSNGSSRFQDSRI
Assay: Glycine uptake inhibition assay (mGlyT-1b), [3H]-glycine uptake in Flp-in-CHO cells
Type: cell-based
Conditions: Flp-in-CHO cells stably transfected with mGlyT1b cDNA; [3H]-glycine 60 nM and 25 μM non-radioactive glycine; read-out: IC50 (μM) at GlyT-1
Procedure: • DMEM complete medium: Nutrient mixture F-12 (Gibco Life-technologies), fetal bovine serum (FBS) 5%, (Gibco life technologies), Penicillin/Streptomycin 1% (Gibco life technologies), Hygromycin 0.6 mg/ml (Gibco life technologies), Glutamine 1 mM Gibco life technologies). • Uptake buffer (UB): 150 mM NaCl, 10 mM Hepes-Tris, pH 7.4, 1 mM CaCl2, 2.5 mM KCl, 2.5 mM MgSO4, 10 mM (+) D-glucose. • Flp-in™-CHO (Invitrogen Cat n° R758-07)cells stably transfected with mGlyT1b cDNA. • Glycine uptake inhibition assay (mGlyT-1b)
On day 1 mammalian cells, (Flp-in™-CHO), transfected with mGlyT-1b cDNA, were plated at the density of 40,000 cells/well in complete F-12 medium, without hygromycin in 96-well culture plates. On day 2, the medium was aspirated and the cells were washed twice with uptake buffer (UB). The cells were then incubated for 20 min at 22° C. with either (i) no potential competitor, (ii) 10 mM non-radioactive glycine, (iii) a concentration of a potential inhibitor. A range of concentration of the potential inhibitor was used to generate data for calculating the concentration of inhibitor resulting in 50% of the effect (e.g. IC50, the concentration of the competitor inhibiting glycine uptake of 50%). A solution was then immediately added containing [^3H]-glycine 60 nM (11-16 Ci/mmol) and 25 μM non-radioactive glycine. The plates were incubated with gentle shaking and the reaction was stopped by aspiration of the mixture and washing (three times) with ice-cold UB. The cells were lysed with scintillation liquid, shaken 3 hours and the radioactivity in the cells was counted using a scintillation counter.

| SMILES | IC50 |
| --- | --- |
| CC(C)Oc1ccc(S(C)(=O)=O)cc1C(=O)N1CCc2nc(-c3cccs3)sc2C1 [Example 6, (2-Isopropoxy-5-methanesulfonyl-phenyl)-(2-thiophen-2-yl-6,7-dihydro-4H!-thiazolo[5,4-c]pyridin-5-yl)-methanone] | 0.407 µM |
| CC(C)COc1ccc(S(C)(=O)=O)cc1C(=O)N1CCc2nc(-c3cccs3)sc2C1 [Example 5, (2-Isobutoxy-5-methanesulfonyl-phenyl)-(2-thiophen-2-yl-6,7-dihydro-4H-thiazolo[5,4-c]pyridin-5-yl)-methanone] | 0.098 µM |
| CC(C)COc1ccc(S(C)(=O)=O)cc1C(=O)N1CCc2nc(-c3ccc(C(F)(F)F)cc3)sc2C1 [Example 23, (2-Isobutoxy-5-methanesulfonyl-phenyl)-[2-(4-trifluoromethyl-phenyl)-6,7-dihydro-4H-thiazolo[5,4-c]pyridin-5-yl]-methanone] | 0.341 µM |
| CC(C)Oc1ccc(S(C)(=O)=O)cc1C(=O)N1CCn2c(cc3cc(OC(F)(F)F)ccc32)C1 [Example 11, (2-Isopropoxy-5-methanesulfonyl-phenyl)-(8-trifluoromethoxy-3,4-dihydro-1H-pyrazino[1,2-a]indol-2-yl)-methanone] | 0.088 µM |
| CC(C)Oc1ccc(S(C)(=O)=O)cc1C(=O)N1CCc2c(sc3ccc(Cl)cc23)C1 [Example 1, (6-Chloro-3,4-dihydro-1H-benzo[4,5]thieno[2,3-c]pyridin-2-yl)-(2-isopropoxy-5-methanesulfonyl-phenyl)-methanone] | 0.019 µM |
| CS(=O)(=O)c1ccc(N2CCOCC2)c(C(=O)N2CCc3c(sc4ccc(Cl)cc34)C2)c1 [Example 2, (6-Chloro-3,4-dihydro-1H-benzo[4,5]thieno[2,3-c]pyridin-2-yl)-(5-methanesulfonyl-2-morpholin-4-yl-phenyl)-methanone] | 0.187 µM |
| CC(C)Oc1ccc(S(C)(=O)=O)cc1C(=O)N1CCn2c(cc3ccc(Cl)cc32)C1 [Example 9, (7-Chloro-3,4-dihydro-1H-pyrazino[1,2-a]indol-2-yl)-(2-isopropoxy-5-methanesulfonyl-phenyl)-methanone] | 0.134 µM |

Second part, the compound after the results:

| IC50 | SMILES |
| --- | --- |
| 0.154 µM | CC(C)Oc1ccc(S(C)(=O)=O)cc1C(=O)N1CCN2c3ccc(OC(F)(F)F)cc3CC2C1 (racemic) [Example 14, Rac-(2-Isopropoxy-5-methanesulfonyl-phenyl)-(8-trifluoromethoxy-3,4,10,10a-tetrahydro-1H-pyrazino[1,2-a]indol-2-yl)-methanone] |
| 0.339 µM | CC(C)Oc1ccc(C#N)cc1C(=O)N1CCc2c(sc3ccc(Cl)cc23)C1 [Example 19, 3-(6-Chloro-3,4-dihydro-1H-benzo[4,5]thieno[2,3-c]pyridine-2-carbonyl)-4-isopropoxy-benzonitrile] |
| 0.367 µM | CS(=O)(=O)c1ccc(OC2CCCC2)c(C(=O)N2CCn3c(nc4ccccc43)C2)c1 [Example 15, (2-Cyclopentyloxy-5-methanesulfonyl-phenyl)-(3,4-dihydro-1H-benzo[4,5]imidazo[1,2-a]pyrazin-2-yl)-methanone] |
| 0.026 µM | CS(=O)(=O)c1ccc(OCC2CC2)c(C(=O)N2CCc3c(sc4ccc(Cl)cc34)C2)c1 [Example 20, (6-Chloro-3,4-dihydro-1H-benzo[4,5]thieno[2,3-c]pyridin-2-yl)-(2-cyclopropylmethoxy-5-methanesulfonyl-phenyl)-methanone] |
| 0.023 µM | C[C@H](Oc1ccc(S(C)(=O)=O)cc1C(=O)N1CCc2c(sc3ccc(Cl)cc23)C1)C(F)(F)F [Example 22, (6-Chloro-3,4-dihydro-1H-benzo[4,5]thieno[2,3-c]pyridin-2-yl)-[5-methanesulfonyl-2-((S)-2,2,2-trifluoro-1-methyl-ethoxy)-phenyl]-methanone] |
